From US20260265233A1, “BENZOTHIOPHENE DERIVATIVES AS RXFP1 AGONISTS” (BRISTOL-MYERS SQUIBB COMPANY, priority 2021, published 2026) come the findings set out here.

For this assay, the target named is T1, human RXFP1 (Homo sapiens, UniProt Q9HBX9).
T1 construct: expressed in transfected cells
T1 sequence (Q9HBX9 1-757): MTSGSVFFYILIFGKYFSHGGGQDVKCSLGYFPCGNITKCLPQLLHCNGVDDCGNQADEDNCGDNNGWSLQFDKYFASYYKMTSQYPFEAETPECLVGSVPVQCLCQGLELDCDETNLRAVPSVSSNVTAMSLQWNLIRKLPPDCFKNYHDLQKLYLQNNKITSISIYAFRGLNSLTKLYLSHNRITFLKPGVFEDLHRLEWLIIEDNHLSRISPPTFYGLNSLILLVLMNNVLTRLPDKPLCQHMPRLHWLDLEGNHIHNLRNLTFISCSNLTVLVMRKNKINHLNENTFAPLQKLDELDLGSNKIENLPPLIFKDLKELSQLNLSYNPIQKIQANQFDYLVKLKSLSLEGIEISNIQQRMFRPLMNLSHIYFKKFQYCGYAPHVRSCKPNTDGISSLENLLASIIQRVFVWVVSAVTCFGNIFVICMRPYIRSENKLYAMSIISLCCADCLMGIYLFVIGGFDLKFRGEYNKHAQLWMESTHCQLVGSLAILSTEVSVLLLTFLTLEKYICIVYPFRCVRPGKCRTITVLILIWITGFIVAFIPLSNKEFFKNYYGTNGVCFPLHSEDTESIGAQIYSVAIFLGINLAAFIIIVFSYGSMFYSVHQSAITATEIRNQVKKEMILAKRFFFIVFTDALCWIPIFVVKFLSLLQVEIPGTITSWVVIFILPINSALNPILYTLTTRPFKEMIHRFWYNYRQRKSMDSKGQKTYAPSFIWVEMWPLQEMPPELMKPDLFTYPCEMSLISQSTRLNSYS
Nature of the assay: hRXFP1 HEK293 cAMP assay (HTRF). Type of assay: cell-based. The note with it: HEK293 cells stably expressing human RXFP1; 30 min at rt; intracellular cAMP by HTRF. The gist of the method:
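Agonism is measured as cAMP by HTRF, quantified from a standard curve via the 665/590 nm ratio and fitted with a four-parameter logistic equation. Compounds (0.010 nM to 50 μM final, 2% DMSO) were applied for 30 min at rt to human RXFP1-expressing HEK293 cells in assay buffer containing 0.5 mM IBMX.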
Background: cAMP levels reflect the balance of adenylyl cyclase and phosphodiesterase activity.

In the case of `COc1ccc(C2CCCN(CC(N)=O)C2)cc1C(=O)Nc1c(C(=O)Nc2ccc(F)c(C(F)(F)F)c2)sc2cc(C(F)(F)F)ccc12` (stereo not shown) [Example 83, 3-(5-(1-(2-amino-2-oxoethyl)piperidin-3-yl)-2-methoxy-benzamido)-N-(4-fluoro-3-(trifluoromethyl)phenyl)-6-(trifluoromethyl) benzo[b] thiophene-2-carboxamide], the EC50 came out at 608 nM.
Next, `COc1ccc(N2CCCC2=O)cc1C(=O)Nc1c(C(=O)Nc2ccc(F)c(C(F)(F)F)c2)sc2cc(C(F)(F)F)ccc12` [Example 290, N-[4-fluoro-3-(trifluoromethyl)phenyl]-3-[2-methoxy-5-(2-oxopyrrolidin-1-yl)benzamido]-6-(trifluoromethyl)-1-benzothiophene-2-carboxamide]: 1410 nM; `COc1ccc(N2CCCC(CC(=O)O)C2)cc1C(=O)Nc1c(C(=O)Nc2ccc(F)c(C(F)(F)F)c2)sc2cc(C(F)(F)F)ccc12` (single isomer, unassigned) [Example 64, 2-(1-(3-((2-((4-fluoro-3-(trifluoromethyl)phenyl)carbamoyl)-6-(trifluoromethyl)benzo[b]thiophen-3-yl)carbamoyl)-4-methoxyphenyl)piperidin-3-yl)acetic acid]: 293 nM; `COc1ccc(C2CCCN(CC(=O)N(C)C)C2)cc1C(=O)Nc1c(C(=O)Nc2ccc(F)c(C(F)(F)F)c2)sc2cc(C(F)(F)F)ccc12` (single isomer, unassigned) [Example 82, 3-(5-(1-(2-(dimethylamino)-2-oxoethyl)piperidin-3-yl)-2-methoxy-benzamido)-N-(4-fluoro-3-(trifluoromethyl)phenyl)-6-(trifluoromethyl) benzo[b] thiophene-2-carboxamide]: 978 nM.
Next, `COc1ccc(C2CC2C(=O)N2CC(OC)C2)cc1C(=O)Nc1c(C(=O)Nc2ccc(F)c(C(F)(F)F)c2)sc2cc(C(F)(F)F)ccc12` (stereo not shown) [Example 167, N-[4-fluoro-3-(trifluoromethyl)phenyl]-3-{2-methoxy-5-[2-(3-methoxyazetidine-1-carbonyl)cyclopropyl]benzamido}-6-(trifluoromethyl)-1-benzothiophene-2-carboxamide]: 400 nM; `COc1ccc(C2CCN(C(=O)C(C)(C)O)C2)cc1C(=O)Nc1c(C(=O)Nc2ccc(F)c(C(F)(F)F)c2)sc2cc(C(F)(F)F)ccc12` (stereo not shown) [Example 140, N-(4-fluoro-3-(trifluoromethyl)phenyl)-3-(5-(1-(2-hydroxy-2-methylpropanoyl)pyrrolidin-3-yl)-2-methoxy-benzamido)-6-(trifluoromethyl) benzo[b] thiophene-2-carboxamide]: 97.9 nM; `COc1ccc(C(=O)N2CC[C@@H](O)C2)cc1C(=O)Nc1c(C(=O)Nc2ccc(F)c(C(F)(F)F)c2)sc2cc(C3CC3)ncc12` [Example 195, (R)-6-cyclopropyl-N-(4-fluoro-3-(trifluoromethyl)phenyl)-3-(5-(3-hydroxy-pyrrolidine-1-carbonyl)-2-methoxy-benzamido) thieno[3,2-c] pyridine-2-carboxamide]: 910 nM.
Next, `COc1ccc(-c2cc(C(=O)O)ccc2F)cc1C(=O)Nc1c(C(=O)Nc2ccc(F)c(C(F)(F)F)c2)sc2cc(Cl)ncc12` [Example 201, 3′-((6-chloro-2-((4-fluoro-3-(trifluoromethyl)phenyl)carbamoyl)thieno[3,2-c]pyridin-3-yl)carbamoyl)-6-fluoro-4′-methoxy-[1,1′-biphenyl]-3-carboxylic acid]: 320 nM.
The molecule `COc1ccc(C(=O)N2CCC(O)CC2)cc1C(=O)Nc1c(C(=O)Nc2ccc(F)c(C(F)(F)F)c2)sc2cc(C(F)(F)F)ccc12` [Example 132, N-(4-fluoro-3-(trifluoromethyl)phenyl)-3-(5-(4-hydroxy-piperidine-1-carbonyl)-2-methoxy-benzamido)-6-(trifluoromethyl) benzo[b] thiophene-2-carboxamide] displayed an EC50 of 135 nM.
As for `COc1ccc(C2CCCN(C(=O)C(C)(C)O)C2)cc1C(=O)Nc1c(C(=O)Nc2ccc(F)c(C(F)(F)F)c2)sc2cc(C(F)(F)F)ccc12` (stereo not shown) [Example 104, N-[4-fluoro-3-(trifluoromethyl)phenyl]-3-{5-[1-(2-hydroxy-2-methylpropanoyl)piperidin-3-yl]-2-methoxy-benzamido}-6-(trifluoromethyl)-1-benzothiophene-2-carboxamide], the figure is 277 nM; as for `COc1ccc(C2CCN(C(=O)C(C)(C)CO)C2)cc1C(=O)Nc1c(C(=O)Nc2ccc(F)c(C(F)(F)F)c2)sc2cc(C(F)(F)F)ccc12` (single isomer, unassigned) [Example 139, N-(4-fluoro-3-(trifluoromethyl)phenyl)-3-(5-(1-(3-hydroxy-2,2-dimethyl-propanoyl)pyrrolidin-3-yl)-2-methoxy-benzamido)-6-(trifluoromethyl) benzo[b] thiophene-2-carboxamide], 72.6 nM.
As for `COc1ccc(C(=O)NCC(C)(C)S(C)(=O)=O)cc1C(=O)Nc1c(C(=O)Nc2ccc(F)c(C(F)(F)F)c2)sc2cc(C(F)(F)F)ccc12` [Example 203, N3-(2-{[4-fluoro-3-(trifluoromethyl)phenyl]carbamoyl}-6-(trifluoromethyl)-1-benzothiophen-3-yl)-N1-(2-methanesulfonyl-2-methylpropyl)-4-methoxybenzene-1,3-dicarboxamide], the figure is 36.1 nM; as for `COc1ccc(C(=O)N2CCC(CO)CC2)cc1C(=O)Nc1c(C(=O)Nc2ccc(F)c(C(F)(F)F)c2)sc2cc(C(F)(F)F)ccc12` [Example 176, N-(4-fluoro-3-(trifluoromethyl)phenyl)-3-(5-(4-(hydroxymethyl)piperidine-1-carbonyl)-2-methoxy-benzamido)-6-(trifluoromethyl) benzo[b] thiophene-2-carboxamide], 279 nM.
The molecule `COc1ccc(-c2cc(C(=O)O)ccc2F)cc1C(=O)Nc1c(C(=O)Nc2ccc(F)c(C(F)(F)F)c2)sc2ncccc12` [Example 289, 6-fluoro-3′-[(2-{[4-fluoro-3-(trifluoromethyl)phenyl]carbamoyl}thieno[2,3-b]pyridin-3-yl)carbamoyl]-4′-methoxy-[1,1′-biphenyl]-3-carboxylic acid] showed an EC50 of 2050 nM.
As for `COc1ccc(C2=NOC3CC(NC(=O)CO)CC23)cc1C(=O)Nc1c(C(=O)Nc2ccc(F)c(C(F)(F)F)c2)sc2cc(C(F)(F)F)ccc12` (single isomer, unassigned) [Example 263, N-[4-fluoro-3-(trifluoromethyl)phenyl]-3-{5-[5-(2-hydroxyacetamido)-3aH,4H,5H,6H, 6aH-cyclopenta[d] [1,2]oxazol-3-yl]-2-methoxy-benzamido}-6-(trifluoromethyl)-1-benzothiophene-2-carboxamide], the figure is 122 nM; as for `COc1ccc(C(=O)NCC(C)(C)O)cc1C(=O)Nc1c(C(=O)Nc2ccc(F)c(C(F)(F)F)c2)sc2cc(C(F)(F)F)ccc12` [Example 237, N3-(2-((4-fluoro-3-(trifluoromethyl)phenyl)carbamoyl)-6-(trifluoromethyl)benzo[b]thiophen-3-yl)-N1-(2-hydroxy-2-methylpropyl)-4-methoxy-isophthalamide], 3770 nM.
Next, `COc1ccc(C2CCCC(NC3COC3)C2)cc1C(=O)Nc1c(C(=O)Nc2ccc(F)c(C(F)(F)F)c2)sc2cc(C(F)(F)F)ccc12` (single isomer, unassigned) [Example 60, N-(4-fluoro-3-(trifluoromethyl)phenyl)-3-(2-methoxy-5-(3-(oxetan-3-ylamino)cyclohexyl)benzamido)-6-(trifluoromethyl) benzo[b] thiophene-2-carboxamide]: 743 nM; `COc1cc(F)c(C(=O)N2CCC(O)CC2)cc1C(=O)Nc1c(C(=O)Nc2ccc(F)c(C(F)(F)F)c2)sc2cc(C(F)(F)F)ccc12` [Example 184, N-(4-fluoro-3-(trifluoromethyl)phenyl)-3-(4-fluoro-5-(4-hydroxypiperidine-1-carbonyl)-2-methoxy-benzamido)-6-(trifluoromethyl) benzo[b] thiophene-2-carboxamide]: 349 nM; `COc1ccc(C(=O)N2CC(C)(C)C2)cc1C(=O)Nc1c(C(=O)Nc2ccc(F)c(C(F)(F)F)c2)sc2cc(C(F)(F)F)ccc12` [Example 27, 3-(5-(3,3-dimethylazetidine-1-carbonyl)-2-methoxybenzamido)-N-(4-fluoro-3-(trifluoromethyl)phenyl)-6-(trifluoromethyl) benzo[b]thiophene-2-carboxamide]: 1720 nM.

The EC50 is the concentration giving half of the maximal effect. A lower EC50 goes with an effect from little substance.
